According to PubChem BioAssay (NCI):
Where “and” joins values, the source holds several entries; their conditions need not be identical. Equal values may be shown once.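 All cell lines were grown in 96-well plates and treated with compound for 48 hours. GI50 = concentration required for 50% inhibition of growth. TGI is the concentration that stops growth completely.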

Assays:
Assay in all cases: NCI tumour cell line growth inhibition, 48 h
[1] = test system: HCT-116 colon
[2] = test system: NCI-H522 lung
[3] = test system: BT-549 breast
[4] = test system: MDA-MB-231 breast
[5] = test system: 786-0 renal
[6] = test system: NCI-H460 lung
[7] = test system: NCI-H226 lung
[8] = test system: HS 578T breast
[9] = test system: UO-31 renal
[10] = test system: K-562 leukemia

Structure (SMILES)	TGI [1]	TGI [2]	TGI [3]	TGI [4]	TGI [5]	TGI [6]	TGI [7]	TGI [8]	TGI [9]	TGI [10]	GI50 [1]	GI50 [2]	GI50 [3]	GI50 [6]	GI50 [10]	GI50 [4]	GI50 [8]
Cc1ccc(C)n1-c1ccccc1C1SCCCS1	> 100 µM	> 100 µM	> 100 µM	> 100 µM	> 100 µM	> 100 µM	> 100 µM	> 100 µM	> 100 µM	> 100 µM	–	–	–	–	–	–	–
CC1=NN(C(=O)CSc2nnc(SCC(=O)N3N=C(C)CC3(O)c3ccccc3)s2)C(O)(c2ccccc2)C1 (stereo unspecified)	> 100 µM	> 100 µM	47 µM	> 100 µM	> 100 µM	> 100 µM	–	70.2 µM	> 100 µM	> 100 µM	–	–	–	–	–	–	–
COCOc1ccc(C(=O)C(C)c2ccc(OCOC)cc2OCOC)c(O)c1 (stereo unspecified)	> 100 µM	> 100 µM	> 100 µM	–	> 100 µM	> 100 µM	–	–	> 100 µM	–	–	–	–	–	–	–	–
O=C1NC(N/N=C\C(O)C(O)C(O)CO)=N/C1=C/c1ccccc1 (stereo unspecified)	> 100 µM	> 100 µM	> 100 µM and 99.8 µM	> 100 µM	> 100 µM	> 100 µM	> 100 µM	> 100 µM	> 100 µM	> 100 µM	> 100 µM and 37.5 µM	> 100 µM and 46.5 µM	> 100 µM and 27.4 µM	> 100 µM and 43.4 µM	> 100 µM and 22.7 µM	–	–
COc1ccc2oc(=N)c(C(=O)Nc3cccc4ccccc34)cc2c1	> 100 µM	–	> 100 µM	79.1 µM	28 µM	> 100 µM	> 100 µM	72.1 µM	30.5 µM	> 100 µM	–	–	–	–	–	–	–
C=CCNC(=S)Nc1sc2c(c1C(=O)OCC)CC(C)CC2 (stereo unspecified)	66.3 µM	46.4 µM	> 100 µM	57 µM	> 100 µM	47.7 µM	50.7 µM	> 100 µM	56.3 µM	> 100 µM	–	–	–	–	–	–	–
C1=C\SS/C=C\SS/C=C\SS/C=C\SS/1	> 100 µM	84.4 µM	> 100 µM	> 100 µM	> 100 µM	68.3 µM	> 100 µM	> 100 µM	> 100 µM	64 µM	–	–	–	–	–	–	–
O=C1N[C@H]2c3c(Cl)sc(Cl)c3/C(=N/O)[C@H]2O1	> 100 µM	–	> 100 µM	> 100 µM	> 100 µM	> 100 µM	–	–	> 100 µM	> 100 µM	–	–	–	–	–	–	–
COC(=O)c1cn(CCCC(=O)O)nn1	> 100 µM	–	> 100 µM	> 100 µM	> 100 µM	> 100 µM	> 100 µM	> 100 µM	> 100 µM	–	–	–	–	–	–	–	–
O=C(O)c1ccccc1.[Ag]	46.3 µM	–	64.9 µM	–	32.7 µM	30.1 µM	> 100 µM	> 71.9 µM	7.17 µM	> 26.4 µM	–	–	–	–	–	–	–
Clc1ccc2c(SCC3CO3)c3ccccc3nc2c1 (stereo unspecified)	3.04 µM	5.64 µM	18.7 µM	6.64 µM	3.44 µM	20.9 µM	> 100 µM	–	3.34 µM	4.43 µM	–	–	–	–	–	–	–
COC(=O)[C@H](Cc1ccccc1)NC(=O)c1ccc(CNC(=O)/C=C/c2ccc(-c3ccccc3)cc2)cc1	> 100 µM	–	97.2 µM	76.7 µM	> 100 µM	> 100 µM	> 100 µM	54.5 µM	> 100 µM	> 100 µM	–	–	–	–	–	–	–
Cc1ccc(C2CC(=O)CC(c3ccc(C)cc3)C23C(=O)NC(=O)NC3=O)cc1 (stereo unspecified)	> 100 µM	> 100 µM	> 100 µM	> 100 µM	> 100 µM	> 100 µM	> 100 µM	–	> 100 µM	> 100 µM	–	–	–	–	–	–	–
Cc1nc2c(=S)[nH]ncc2[nH]1	> 100 µM	> 100 µM	> 100 µM	> 100 µM	> 100 µM	–	> 100 µM	–	> 100 µM	> 100 µM	–	–	–	–	–	–	–
CCC(C)[C@H](NC(=O)[C@H](Cc1ccccc1)NC(=O)N(CC)c1ccccc1)C(=O)N[C@@H](CC(C)C)C(=O)OC (stereo partly specified)	> 100 µM	–	> 100 µM	> 100 µM	> 100 µM	–	46.2 µM	> 100 µM	67.2 µM	–	–	–	–	–	–	–	–
Nc1nc2c(=O)c3ccccc3sc2s1	> 100 µM	–	> 100 µM	> 100 µM	> 100 µM	> 100 µM	79.1 µM	> 100 µM	> 100 µM	> 100 µM	–	–	–	–	–	–	–
FC(F)(F)c1ccc(-c2nc(-c3nc4cc(Cl)c(Cl)cc4[nH]3)c3ccccn23)cc1	> 100 µM	> 100 µM	> 100 µM	> 100 µM	–	–	–	> 100 µM	–	> 100 µM	2.92 µM	10.6 µM	8.69 µM	–	> 100 µM	2.49 µM	3.99 µM
CC1(C)O[C@H]2Cn3c(c(C#N)c4ccccc43)[C@H]2O1	> 100 µM	> 100 µM	> 100 µM	> 100 µM	> 100 µM	> 100 µM	–	> 100 µM	> 100 µM	–	–	–	–	–	–	–	–
CCOC(=O)CCCn1nnc(C(=O)OCC)c1C(=O)OCC	> 100 µM	–	> 100 µM	> 100 µM	> 100 µM	> 100 µM	> 100 µM	> 100 µM	> 100 µM	–	–	–	–	–	–	–	–
CCCC(=O)O	> 18700 µM	> 18700 µM	> 18700 µM	18000 µM	> 18700 µM	> 18700 µM	> 18700 µM	> 18700 µM	10200 µM	–	–	–	–	–	–	–	4950 µM
O=C1c2ccccc2C(=O)N1n1c(Cc2ccccc2)n[nH]c1=O	> 100 µM	–	> 100 µM	> 100 µM	> 100 µM	> 100 µM	> 100 µM	> 100 µM	> 100 µM	> 100 µM	–	–	–	–	–	–	–
C1CC2=C(C1)[Se]C(=C1Sc3nsnc3S1)[Se]2	> 100 µM	> 100 µM	> 100 µM	> 100 µM	> 100 µM	> 100 µM	> 100 µM	> 100 µM	> 100 µM	–	–	–	–	–	–	–	–
CCOC(=O)c1cn(-c2ccccc2)c(=S)n2c1nc1ccccc12	> 100 µM	–	> 100 µM	> 100 µM	> 100 µM	> 100 µM	> 88.1 µM	–	–	> 100 µM	–	–	–	–	–	–	–
